For assay [1], the target named is T1, potassium ion channel hERG (human Ether-á-go-go-Related Gene) (Homo sapiens, UniProt Q12809).
T1 construct: expressed in transfected cells; host or cells: Chinese hamster ovary K1 (CHO)
Description: Assay 5 - hERG assay (SyncroPatch 384PE patch clamp, CHO cells). In kind it is cell-based. The note with it: geometric mean, CHO cells over-expressing hERG, read-out: Assay 5 (hERG Hu CHO IF EPh CR-Syncro) GMean IC50. Here is the method:
Assay 5—hERG Assay (Human Ether-á-go-go-Related Gene)
This assay (human Ether-á-go-go-Related Gene) measures activity of the compounds at the potassium ion channel hERG (human Ether-á-go-go-Related Gene).
Experiments were performed on the SyncroPatch 384PE high throughput patch clamp platform at room temperature and medium resistance chips with 4 patch holes per site. Chinese hamster ovary K1 (CHO) cell lines over-expressing the ion channel of choice (hERG) were used in assay-ready format and kept in liquid nitrogen or were used from live culture. Cells were either thawed and diluted in HBSS or were detached from flasks and resuspended in HBSS. HBSS comprised 140 mM NaCl, 4 mM KCl, 10 mM HEPES and 5 mM Glucose (pH 7.4). The internal patch clamp solution was KF 120 mM, KCl 20 mM, HEPES 10 mM, EGTA 10 mM, and 25 μM Escin (pH 7.2). After the sealing process was complete, the external solution was exchanged for external patch clamp solution comprising NaCl 80 mM, KCl 4 mM, HEPES 10 mM, CaCl2 2 mM, MgCl2 1 mM, glucose 5 mM, and NMDG 60 mM (pH 7.4). All solutions were stored at room temperature, except Escin, which was stored at 4° C. All test compounds were dispensed in greiner-bio 384 well plates and tested in a 6 point cumulative assay (final DMSO concentration 0.33%). Only wells that passed previously agreed acceptance criteria for this platform were used in this analysis (30 MegaOhm seal resistance, Z prime>0.4 and current size>0.2 nA).
For orientation: hERG is a cardiac potassium channel; its block is linked to QT prolongation.

Assay [2] has as its target GSK3b (Glycogen synthase kinase-3 beta) (Homo sapiens, UniProt P49841). Description: Assay 6 - GSK3b assay (ThermoFisher, FRET Z-Lyte). In kind it is biochemical. The note with it: geometric mean; ATP Conc: 10.000 μM; read-out: Assay 6 (GSK3B FRET-Z-Lyte CR) GMean IC50 (μM) ATP Conc: 10.000. Here is the method: This assay measures the activity of the compounds at GSK3b (Glycogen synthase kinase-3 beta).
The test compounds were screened in 1% DMSO (final) in the well. For 10-point titrations, 3-fold serial dilutions are conducted from the starting concentration of 10 μM.
• Bar-coded Corning, low volume NBS, black 384-well plate • 1. 2.5 μL—4× Test Compound or 100 nL 100× plus 2.4 μL kinase buffer • 2. 5 μL—2× Peptide/Kinase Mixture • 3. 2.5 μL—4× ATP Solution • 4. 30-second plate shake • 5. 60-minute Kinase Reaction incubation at room temperature • 6. 5 μL—Development Reagent Solution • 7. 30-second plate shake • 8. 60-minute Development Reaction incubation at room temperature • 9. Read on fluorescence plate reader and analyse the data
In step 2, the 2× GSK3β (GSK3 beta)/Ser/Thr (Glycogen synthase kinase-3 beta/Serine/Threonine) 09 mixture is prepared in 50 mM HEPES (4-(2-hydroxyethyl)-1-piperazineethanesulfonic acid) pH 7.5, 0.01% BRIJ-35, 10 mM MgCl2, 1 mM EGTA (egtazic acid). The final 10 μL Kinase Reaction consists of 0.22-0.92 ng GSK3β (GSK3 beta) and 2 μM Ser/Thr 09 in 50 mM HEPES pH 7.5, 0.01% BRIJ-35, 10 mM MgCl2, 1 mM EGTA.
In step 3 the ATP Solution is diluted to a 4× working concentration in Kinase Buffer (50 mM HEPES pH 7.5, 0.01% BRIJ-35, 10 mM MgCl2, 1 mM EGTA).
In Step 6 the Development Reagent is diluted 1:512 in Development Buffer (10× Novel PKC Lipid Mix: 2 mg/mL Phosphatidyl Serine, 0.2 mg/mL DAG in 20 mM HEPES, pH 7.4, 0.3% CHAPS).
SelectScreen® Kinase Profiling Service uses XLfit from IDBS. The dose response curve is curve fit to model number 205 (sigmoidal dose-response model).

Assay [3] deals with T2, PCSK9 (Homo sapiens, UniProt Q8NBP7, G670E/V474I). Description: cell-based.
Target sequence in this assay (Q8NBP7 31-152): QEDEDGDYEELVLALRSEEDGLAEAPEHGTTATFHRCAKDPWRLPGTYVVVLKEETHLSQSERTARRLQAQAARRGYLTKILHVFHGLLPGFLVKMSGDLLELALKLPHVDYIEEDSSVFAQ
Target sequence in this assay (Q8NBP7 153-692 V474I/G670E): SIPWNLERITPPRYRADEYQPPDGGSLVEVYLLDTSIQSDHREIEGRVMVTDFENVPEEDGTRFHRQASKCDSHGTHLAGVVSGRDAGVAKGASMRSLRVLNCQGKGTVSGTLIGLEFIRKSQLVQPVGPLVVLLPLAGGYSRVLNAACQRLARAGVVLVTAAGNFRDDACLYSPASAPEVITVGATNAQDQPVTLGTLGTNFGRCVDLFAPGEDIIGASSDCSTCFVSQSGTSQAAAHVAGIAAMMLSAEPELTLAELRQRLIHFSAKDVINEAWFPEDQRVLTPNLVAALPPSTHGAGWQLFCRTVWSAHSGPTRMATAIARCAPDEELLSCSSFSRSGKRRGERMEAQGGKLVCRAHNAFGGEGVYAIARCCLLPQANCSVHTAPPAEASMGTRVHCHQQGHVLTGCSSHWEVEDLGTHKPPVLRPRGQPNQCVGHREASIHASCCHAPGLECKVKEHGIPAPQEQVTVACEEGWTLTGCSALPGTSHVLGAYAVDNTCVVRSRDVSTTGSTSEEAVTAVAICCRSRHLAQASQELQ
Assay [4] deals with T2, PCSK9. Description: biochemical.
Target sequence in this assay (Q8NBP7 with tags, fused parts or gaps V474I/G670E): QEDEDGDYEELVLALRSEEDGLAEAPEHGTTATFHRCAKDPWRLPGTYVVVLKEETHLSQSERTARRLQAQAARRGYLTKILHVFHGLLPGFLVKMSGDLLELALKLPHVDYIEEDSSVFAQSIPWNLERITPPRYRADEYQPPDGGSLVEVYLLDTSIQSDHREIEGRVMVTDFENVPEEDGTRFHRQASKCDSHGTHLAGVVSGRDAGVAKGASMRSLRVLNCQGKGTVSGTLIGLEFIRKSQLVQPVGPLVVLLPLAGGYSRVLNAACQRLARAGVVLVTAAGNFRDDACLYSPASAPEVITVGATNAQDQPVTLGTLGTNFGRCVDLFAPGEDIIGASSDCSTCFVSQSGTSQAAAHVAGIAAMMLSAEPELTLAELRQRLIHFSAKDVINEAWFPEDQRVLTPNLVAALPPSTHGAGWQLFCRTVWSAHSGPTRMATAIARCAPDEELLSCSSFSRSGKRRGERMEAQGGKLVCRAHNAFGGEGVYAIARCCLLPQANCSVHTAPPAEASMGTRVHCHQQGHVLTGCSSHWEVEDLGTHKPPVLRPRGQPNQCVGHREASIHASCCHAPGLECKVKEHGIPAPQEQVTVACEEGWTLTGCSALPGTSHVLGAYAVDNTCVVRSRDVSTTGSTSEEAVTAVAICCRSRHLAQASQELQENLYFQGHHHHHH

The structures appear in SMILES notation.

T1 sequence (Q12809 whole entry): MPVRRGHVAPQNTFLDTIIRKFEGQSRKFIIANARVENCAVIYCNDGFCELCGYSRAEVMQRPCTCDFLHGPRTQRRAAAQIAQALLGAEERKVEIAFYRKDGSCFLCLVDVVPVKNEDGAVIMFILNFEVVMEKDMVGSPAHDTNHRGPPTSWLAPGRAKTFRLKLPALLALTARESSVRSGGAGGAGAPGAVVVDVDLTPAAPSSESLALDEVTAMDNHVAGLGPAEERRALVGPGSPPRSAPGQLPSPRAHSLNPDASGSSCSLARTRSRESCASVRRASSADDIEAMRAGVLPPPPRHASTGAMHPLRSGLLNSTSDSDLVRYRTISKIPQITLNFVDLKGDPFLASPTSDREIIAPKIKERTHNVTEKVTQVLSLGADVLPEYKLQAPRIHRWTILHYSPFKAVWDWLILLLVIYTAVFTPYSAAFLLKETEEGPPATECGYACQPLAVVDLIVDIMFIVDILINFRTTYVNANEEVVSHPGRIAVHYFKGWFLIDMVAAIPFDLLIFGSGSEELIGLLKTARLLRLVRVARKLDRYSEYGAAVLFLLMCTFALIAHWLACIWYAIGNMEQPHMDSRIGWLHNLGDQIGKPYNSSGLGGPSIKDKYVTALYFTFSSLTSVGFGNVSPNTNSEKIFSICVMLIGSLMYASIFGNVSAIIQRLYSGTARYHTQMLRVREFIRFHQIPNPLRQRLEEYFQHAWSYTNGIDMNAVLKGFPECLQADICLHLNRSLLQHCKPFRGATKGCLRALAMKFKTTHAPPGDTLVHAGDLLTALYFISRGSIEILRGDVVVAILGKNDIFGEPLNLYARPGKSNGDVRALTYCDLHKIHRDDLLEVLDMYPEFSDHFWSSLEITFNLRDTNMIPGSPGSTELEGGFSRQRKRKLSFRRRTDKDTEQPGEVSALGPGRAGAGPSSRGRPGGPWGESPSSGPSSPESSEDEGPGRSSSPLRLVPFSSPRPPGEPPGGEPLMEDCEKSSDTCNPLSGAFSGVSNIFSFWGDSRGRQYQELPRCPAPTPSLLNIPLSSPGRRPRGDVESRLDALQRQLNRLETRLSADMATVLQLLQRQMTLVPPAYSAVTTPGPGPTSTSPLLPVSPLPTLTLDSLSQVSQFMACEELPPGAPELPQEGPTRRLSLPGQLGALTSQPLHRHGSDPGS
GSK3b (Glycogen synthase kinase-3 beta), sequence (P49841 whole entry): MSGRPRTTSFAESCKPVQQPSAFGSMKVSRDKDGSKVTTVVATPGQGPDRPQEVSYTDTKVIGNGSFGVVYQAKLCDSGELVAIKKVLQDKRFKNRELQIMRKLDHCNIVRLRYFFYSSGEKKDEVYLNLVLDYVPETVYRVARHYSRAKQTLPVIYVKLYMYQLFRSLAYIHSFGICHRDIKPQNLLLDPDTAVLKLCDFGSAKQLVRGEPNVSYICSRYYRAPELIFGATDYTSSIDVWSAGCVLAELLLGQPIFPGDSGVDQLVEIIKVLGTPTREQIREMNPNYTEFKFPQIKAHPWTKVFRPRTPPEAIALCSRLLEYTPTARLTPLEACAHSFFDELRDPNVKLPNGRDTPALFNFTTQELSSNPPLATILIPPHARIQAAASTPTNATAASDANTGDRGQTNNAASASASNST

As to `O=c1ccccn1-c1ccc(N[C@H]2CC[C@H](Nc3nc4cc(Br)cnc4s3)C2)nc1` [Compound 87, 6′-(((1S,3S)-3-((6-Bromothiazolo[5,4-b]pyridin-2-yl)amino)cyclopentyl)amino)-2H-[1,3′-bipyridin]-2-one], the IC50 (in general, the concentration that inhibits the measured activity by half) is 4.31 µM in assay [1], 6.74 µM in assay [2], 0.41 µM in assay [3] and 0.0014 µM in assay [4].

In the case of `O=c1ccc(Cl)cn1-c1ccc(N[C@H]2CC[C@H](Nc3nc4cccnc4o3)C2)nc1` [Example 13, 5-Chloro-6′-(((1S,3S)-3-(oxazolo[5,4-b]pyridin-2-ylamino)cyclopentyl)amino)-2H-[1,3′-bipyridin]-2-one], the IC50 was 27.8 µM in assay [1], > 10 µM in assay [2], 1.6 µM in assay [3] and 0.0133 µM in assay [4].

On to `O=c1ccc(Cl)cn1-c1ccc(N[C@H]2CC[C@H](Nc3nc4cccnc4[nH]3)C2)nc1` [Example 71, 6′-(((1S,3S)-3-((3H-Imidazo[4,5-b]pyridin-2-yl)amino)cyclopentyl)amino)-5-chloro-2H-[1,3′-bipyridin]-2-one], for which the IC50 is > 40 µM in assay [1], 2.83 µM in assay [2], 0.123 µM in assay [3] and 0.0026 µM in assay [4].

Regarding `COc1cccn(-c2ccc(N[C@H]3CC[C@H](Nc4nc5cccnc5[nH]4)C3)nc2)c1=O` [Example 41, 6′-(((1S,3S)-3-((3H-Imidazo[4,5-b]pyridin-2-yl)amino)cyclopentyl)amino)-3-methoxy-2H-[1,3′-bipyridin]-2-one], the IC50 was > 40 µM in assay [1], 0.066 µM in assay [2], 0.186 µM in assay [3] and 0.0035 µM in assay [4].

`O=c1ccc(OC(F)F)cn1-c1ccc(N[C@H]2CC[C@H](Nc3nc4cccnc4s3)C2)nc1` [Example 77, 5-(Difluoromethoxy)-6′-(((1S,3S)-3-(thiazolo[5,4-b]pyridin-2-ylamino)cyclopentyl)amino)-2H-[1,3′-bipyridin]-2-one]: the IC50 stood at 10.4 µM in assay [1], 4.72 µM in assay [2], 0.204 µM in assay [3] and 0.0042 µM in assay [4].

On to `COc1cnc2[nH]c(N[C@H]3CC[C@H](Nc4ccc(-n5ccccc5=O)cn4)C3)nc2c1` [Example 57, 6′-(((1S,3S)-3-((6-Methoxy-3H-imidazo[4,5-b]pyridin-2-yl)amino)cyclopentyl)amino)-2H-[1,3′-bipyridin]-2-one], for which the concentration for half-maximal inhibition (IC50) in assay [1] was > 40 µM; in assay [2], 5.45 µM; in assay [3], 0.066 µM; in assay [4] it was 0.0043 µM.

On to `O=c1ccccn1-c1ccc(N[C@H]2CC[C@H](Nc3nc4cc(Cl)cnc4[nH]3)C2)nc1` [Example 47, 6′-(((1S,3S)-3-((6-Chloro-3H-imidazo[4,5-b]pyridin-2-yl)amino)cyclopentyl)amino)-2H-[1,3′-bipyridin]-2-one], for which the concentration for half-maximal inhibition (IC50) in assay [1] is > 40 µM; in assay [2], 0.331 µM; in assay [3] it was 0.064 µM; in assay [4], 0.0016 µM.

On to `Cc1ncc(-c2ccc(=O)n(-c3ccc(N[C@H]4CC[C@H](Nc5nc6cc(Br)cnc6[nH]5)C4)nc3)c2)cn1` [Example 52, 6′-(((1S,3S)-3-((6-Bromo-3H-imidazo[4,5-b]pyridin-2-yl)amino)cyclopentyl)amino)-5-(2-methylpyrimidin-5-yl)-2H-[1,3′-bipyridin]-2-one], for which the half-inhibitory concentration (IC50) was > 40 µM in assay [1], 0.178 µM in assay [2], 0.59 µM in assay [3] and 0.0045 µM in assay [4].

Turning to `O=c1ccccn1-c1ccc(N[C@H]2CC[C@H](Nc3nc4cc(F)cnc4[nH]3)C2)nc1` [Example 48, 6′-(((1S,3S)-3-((6-Fluoro-3H-imidazo[4,5-b]pyridin-2-yl)amino)cyclopentyl)amino)-2H-[1,3′-bipyridin]-2-one], the concentration for half-maximal inhibition (IC50) in assay [1] was > 40 µM; in assay [2], 0.805 µM; in assay [3], 0.1 µM; in assay [4] it was 0.0021 µM.

`O=c1ccc(-c2nn[nH]n2)cn1-c1ccc(N[C@H]2CC[C@H](Nc3nc4cccnc4[nH]3)C2)nc1` [Example 86, 6′-(((1S,3S)-3-((3H-Imidazo[4,5-b]pyridin-2-yl)amino)cyclopentyl)amino)-5-(2H-tetrazol-5-yl)-2H-[1,3′-bipyridin]-2-one]: the half-inhibitory concentration (IC50) in assay [3] came to 0.187 µM; in assay [4] it was 0.0035 µM.

With `O=c1ccccn1-c1ccc(N[C@H]2CC[C@H](Nc3nc4cccnc4[nH]3)C2)cc1` [Example 74, 1-(4-(((1S,3S)-3-((3H-Imidazo[4,5-b]pyridin-2-yl)amino)cyclopentyl)amino)phenyl)pyridin-2(1H)-one], the IC50 in assay [1] is > 40 µM; in assay [2], > 10 µM; in assay [4] it was 0.173 µM.

Turning to `Fc1ccccc1-c1ccc(N[C@H]2CC[C@H](Nc3nc4cccnc4[nH]3)C2)nc1` [Example 69, (1S,3S)—N^1-(5-(2-Fluorophenyl)pyridin-2-yl)-N^3-(3H-imidazo[4,5-b]pyridin-2-yl)cyclopentane-1,3-diamine], the IC50 was 1.17 µM in assay [1], > 10 µM in assay [2] and 0.083 µM in assay [4].

In the case of `O=c1ccccn1-c1ccc(N[C@H]2CC[C@H](Nc3nc4ccccc4s3)C2)nc1` [Example 7, 6′-(((1S,3S)-3-(Benzo[d]thiazol-2-ylamino)cyclopentyl)amino)-2H-[1,3′-bipyridin]-2-one], the half-inhibitory concentration (IC50) was 12.6 µM in assay [1], > 10 µM in assay [2] and 0.324 µM in assay [4].

Take `Cc1ccc2nc(N[C@H]3CC[C@H](Nc4ccc(-n5ccccc5=O)cn4)C3)oc2c1` [Example 2, 6′-(((1S,3S)-3-((6-Methylbenzo[d]oxazol-2-yl)amino)cyclopentyl)amino)-2H-[1,3′-bipyridin]-2-one]: the results for the IC50 in assay [1], in assay [2] and in assay [4] were 13.2 µM, > 10 µM and 0.0118 µM, respectively.

With `O=c1ccccn1-c1ccc(N[C@H]2CC[C@H](Nc3nc4ncccc4o3)C2)nc1` [Compound 89, 6′-(((1S,3S)-3-(Oxazolo[4,5-b]pyridin-2-ylamino)cyclopentyl)amino)-2H-[1,3′-bipyridin]-2-one], the concentration for half-maximal inhibition (IC50) in assay [1] was > 40.1 µM; in assay [2], > 10 µM; in assay [4] it was 0.259 µM.

Turning to `O=C1CN(c2ccc(N[C@H]3CC[C@H](Nc4nc5cccnc5[nH]4)C3)nc2)C(=O)N1` [Example 65, 1-(6-(((1S,3S)-3-((3H-Imidazo[4,5-b]pyridin-2-yl)amino)cyclopentyl)amino)pyridin-3-yl)imidazolidine-2,4-dione], the half-maximal inhibitory concentration (IC50) was > 40 µM in assay [1], 8.19 µM in assay [2] and 0.0078 µM in assay [4].

For the molecule `Cn1cccc(-c2cnc(N[C@H]3CC[C@H](Nc4nc5cccnc5[nH]4)C3)cn2)c1=O` [Example 75, 3-(5-(((1S,3S)-3-((3H-Imidazo[4,5-b]pyridin-2-yl)amino)cyclopentyl)amino)pyrazin-2-yl)-1-methylpyridin-2(1H)-one], the IC50 in assay [1] was > 40 µM; in assay [2], > 10 µM; in assay [4] it was 0.0168 µM.

Turning to `COc1ccccc1-c1ccc(N[C@H]2CC[C@H](Nc3nc4cccnc4[nH]3)C2)nc1` [Example 66, (1S,3S)—N^1-(3H-Imidazo[4,5-b]pyridin-2-yl)-N^3-(5-(2-methoxyphenyl)pyridin-2-yl)cyclopentane-1,3-diamine], the IC50 is 1.94 µM in assay [1], > 10 µM in assay [2] and 0.166 µM in assay [4].

Source of the values: patent publication US20240239767A1 (AstraZeneca AB, priority 2022, published 2024).
